{"source": "paper PMC11926788", "about": "“Effect of SSR504734, a Selective Glycine Transporter Type 1 Inhibitor, on Seizure Thresholds, Neurotransmitter Levels, and Inflammatory Markers in Mice” (ACS Chemical Neuroscience, 2025)", "key": {"[1]": {"tested_on": "6 Hz-induced psychomotor seizures in mice", "experiment": "6 Hz-induced psychomotor seizure threshold test", "assay_type": "in vivo", "conditions": "SSR504734 any of the doses tested, VPA 150 mg/kg", "experimental": "Psychomotor seizures were induced through the application of rectangular pulses (0.2 ms width; 6 pulses per second) for 3 s using a Grass model CCU1 constant current unit coupled to a Grass S48 stimulator (Grass Technologies, Warwick, RI, USA). Stimuli were delivered via saline-soaked transcorneal electrodes. An ocular anesthetic (1% tetracaine hydrochloride) was administered on the animal’s corneas. Mice were restrained manually during stimulation and placed in transparent box immediately for behavioral observation. 6 Hz-induced seizures were characterized by head-nodding, chewing, eye-blinking, twitching of the vibrissae, rearing, stunned posture, forelimb clonus, and Straub tail. The absence of the described features or the return to normal exploratory behavior within 20 s poststimulation was considered as the absence of seizures. The 6 Hz seizure threshold test were conducted on groups of 20 animals stimulated with different current intensities by using the “up-and-down” method described by Kimball et al.[28]\nThe seizure threshold was quantified as the median current strength (CS50 value with confidence limits for 95% probability), predicting the induction of psychomotor seizures in 50% of the tested animals."}, "[2]": {"experiment": "Chimney test (motor coordination)", "assay_type": "in vivo, mice", "experimental": "The impact of SSR504734 on motor coordination in mice was evaluated by using the chimney test. Each animal was individually placed inside a transparent Plexiglas tube with an inner diameter of 3 cm and a length of 30 cm. The tube was horizontally positioned on a table and shifted vertically once the mouse reached the opposite end. Within a 60 s time frame, the mouse was required to climb backward to escape from the tube. In order to minimize the number of animals used, a chimney test was carried out shortly before seizure tests.\nTable S2. Time-course effect of SSR5504734 on neuromuscular strength and motor […]\nGroup Neuromuscular strength Impairment of motor\nSSR504734 was dissolved in normal saline and injected i.p. at the dose of 30 mg/kg. Control animals received saline. The data are expressed as the mean ± SD of grip strengths measured in millinewtons per gram of mouse body weight (mN/g) from the grip-strength test assessing […]\ncoordination impairment in the chimney test. Each experimental group consisted of 12 animals. The grip-strength test results were analyzed using a one-way ANOVA with Dunnett’s post hoc test, while the data from the chimney test were statistically evaluated using Fisher’s exact probability test. *p<0.05 vs. control group.\nTable S3. Effect of acute and 14-day treatment with SSR504734 on neuromuscular strength and motor coordination in mice\nIn acute studies, SSR504734 and sodium valproate (VPA; positive control) were injected i.p.\n60 and 15 min before the test, respectively. In subchronic studies, SSR504734 and VPA were injected i.p. every 24 h for 14 days. The last administration was made 60 and 15 min before the tests, respectively. Control animals received saline. Each experimental group consisted of 12 animals. The grip-strength test results were analyzed using a one-way ANOVA with […]\nFisher’s exact probability test."}, "[3]": {"tested_on": "inflammatory markers in liver homogenates", "experiment": "Inflammatory markers in liver (ELISA)", "assay_type": "in vivo, mice", "conditions": "14-day administration, 30 mg/kg i.p.", "experimental": "Samples of liver tissue were homogenized with a protease inhibitor solution (0.4 M NaCl, 0.05% Tween 20, 0.5% bovine serum albumin, 0.1 mM phenylmethylsulfonylfluoride, 0.1 mM benzethonium chloride, 10 mM EDTA, and 10 μg/mL aprotinin). Homogenates were centrifuged at 12,000 rpm at 4 °C, and supernatant fluids were collected and stored at −80 °C until analysis. The entire procedure was described by Zhao et al.[29]\nELISA kits were used to determine IL-1-β, IL-6, IL-10, TNF-α, and IFN-γ (EIAAB Science INC, Wuhan, Hubei, China, nos. E0563m, E0079m, E0056m, E0049m, E0133m, E0753m) and IL-18 (Biorbyt Ltd., Cambridge, United Kingdom, no. orb437211) in the liver homogenates and serum. All assays were performed according to the producer’s instructions. All samples were tested in triplicate."}, "[4]": {"experiment": "PAMPA (Gentest Precoated PAMPA Plate System)", "assay_type": "in vitro ADME", "conditions": "± SD", "experimental": "(§1) A series of in vitro ADME-Tox tests were performed for SSR504734 in order to estimate its drugability. The ADME-Tox parameters including permeability, plasma protein binding, metabolic stability, neurotoxicity, and hepatotoxicity were carried out as described previously.[31],[32] The ability of SSR504734 to penetrate through the biological membrane by passive diffusion was estimated by the Gentest Precoated PAMPA Plate System (Corning, Tewksbury, MA) and expressed as the permeability coefficient (Pe). The protein binding analysis was performed by using the commercial TRANSIL^XL PPB test, which mimics in vitro physiological plasma conditions where human serum albumin (HAS) and alpha-1-acid glycoprotein AGP are present in a 24:1 ratio. The human metabolism of SSR504734 was studied using human liver microsomes (HLMs) provided by Sigma-Aldrich. The hepatotoxicity and neurotoxicity were estimated in cellular models with the use of hepatoma HepG2 and neuroblastoma SH-SY5Y cell lines to perform the preliminary safety tests. The cells were incubated with SSR504734 at the concentration range of 0.1–100 μM. 1 μM cytostatic drug doxorubicin (DX) was used as the reference."}, "[5]": {"experiment": "Metabolic stability in human liver microsomes (HLMs)", "assay_type": "in vitro ADME", "experimental": "as §1"}, "hepatoma HepG2 cells": {"tested_on": "hepatoma HepG2 cells", "experiment": "Hepatotoxicity, HepG2 cell viability", "assay_type": "cell-based", "experimental": "as §1\nFigure 8 Effect of cytostatic drug doxorubicin (DX) and SSR504734 on (A) hepatoma HepG2 and (B) neuroblastoma SH-SY5Y cell lines viability after 72 h of incubation at 37 °C, 5% CO2. Data are expressed as means ± SD. Statistical analysis: ****p < 0.0001 vs negative control −1% DMSO in growth media (one-way ANOVA, followed by Dunnett’s post hoc test).\nFigure S8. The effect of cytostatic drug doxorubicin and SSR504734 on (A) hepatoma\nHepG2 and (B) neuroblastoma SH-SY5Y cell line viability after 72 h of incubation at 37 °C,\n5% CO2. The IC50 values were calculated by GraphPad Prism 8.0.\n(1 picture or pasted object on this page, not shown here)"}}, "note": "Several values for one entry are separate records, joined by “and”; a condition that tells them apart may be missing. Equal values may be shown once. Where a name gives a salt, the structure may show the parent alone.", "data": [{"smiles": "O=C(NC(c1ccccc1)C1CCCCN1)c1cccc(C(F)(F)F)c1Cl", "note": "[SSR504734, 2-chloro-N-[(S)-phenyl[(2S)-piperidin-2-yl]methyl]-3-trifluoromethyl benzamide monohydrochloride]", "values": [{"measurement": "effect on current intensity necessary to induce psychomotor seizures", "setting": "[1]; 14-day administration i.p.", "result": "no statistically significant effect"}, {"measurement": "effect on current intensity necessary to induce psychomotor seizures", "setting": "[1]; single administration i.p.", "result": "no statistically significant effect"}, {"measurement": "Impairment of motor coordination", "setting": "[2]; 30 mg/kg i.p., 15 min", "result": 0, "unit": "%"}, {"measurement": "Impairment of motor coordination", "setting": "[2]; 30 mg/kg i.p., 30 min", "result": 0, "unit": "%"}, {"measurement": "Impairment of motor coordination", "setting": "[2]; 30 mg/kg i.p., 60 min", "result": 0, "unit": "%"}, {"measurement": "Impairment of motor coordination", "setting": "[2]; 30 mg/kg i.p., 120 min", "result": 8.33, "unit": "%"}, {"measurement": "Impairment of motor coordination", "setting": "[2]; 30 mg/kg i.p., 240 min", "result": 0, "unit": "%"}, {"measurement": "Impairment of motor coordination", "setting": "[2]; 14-day treatment, 3 mg/kg i.p.", "result": 0, "unit": "%"}, {"measurement": "Impairment of motor coordination", "setting": "[2]; 14-day treatment, 10 mg/kg i.p.", "result": 0, "unit": "%"}, {"measurement": "Impairment of motor coordination", "setting": "[2]; 14-day treatment, 30 mg/kg i.p.", "result": 0, "unit": "%"}, {"measurement": "Impairment of motor coordination", "setting": "[2]; acute treatment, 10 mg/kg i.p.", "result": 0, "unit": "%"}, {"measurement": "Impairment of motor coordination", "setting": "[2]; acute treatment, 30 mg/kg i.p.", "result": 0, "unit": "%"}, {"measurement": "Impairment of motor coordination", "setting": "[2]; acute treatment, 50 mg/kg i.p., 50 mg/kg", "result": "33.3% and ~33%"}, {"measurement": "level of inflammatory markers in liver samples", "setting": "[3]", "result": "No statistically significant changes"}, {"measurement": "Papp", "setting": "[4]; PAMPA, read-out: PAMPA Pe", "result": "14.8 ± 1.49", "unit": "×10⁻⁶ cm/s"}, {"measurement": "PAMPA Pe", "setting": "[4]", "result": "14.80 10^–6 cm/s"}, {"measurement": "metabolized", "setting": "[5]; 120 min incubation with HLMs, UPLC analysis", "result": 5, "unit": "%"}, {"measurement": "remaining at 2 h", "setting": "[5]; after 120 min of incubation with human liver microsomes", "result": 94.7, "unit": "%"}, {"measurement": "metabolic pathway, metabolite M1", "setting": "[5]; after incubation with HLMs", "result": "hydroxylation, oxidation, and dehydrogenation"}, {"measurement": "metabolic pathway, metabolite M2", "setting": "[5]; after incubation with HLMs", "result": "dehydrogenation"}, {"measurement": "metabolic pathway, metabolite M3", "setting": "[5]; after incubation with HLMs", "result": "oxidation"}, {"measurement": "HepG2 cell viability", "setting": "hepatoma HepG2 cells; 25 μM and higher concentrations, 72 h", "result": "significant decrease"}, {"measurement": "IC50", "setting": "hepatoma HepG2 cells; Homo sapiens, HepG2, 72 h of incubation", "result": 14.8, "unit": "µM"}, {"measurement": "hepatotoxic properties (HepG2 viability)", "setting": "hepatoma HepG2 cells; concentration range of 1–10 μM, 72 h", "result": "did not exhibit hepatotoxic properties"}]}]}
